The text below walks through data of PMC10304880, “Novel Tryptanthrin Derivatives with Selectivity as c–Jun N–Terminal Kinase (JNK) 3 Inhibitors” (Molecules, 2023).

The Kd is the equilibrium constant for the complex coming apart. For orientation: IC50 means the point on the concentration scale where inhibition reaches its midpoint. In general, melting point refers to the temperature of the solid-liquid transition.

Read-outs that look alike come from different tables or passages of the source.

In data set [1] the target is T1, JNK1 (Homo sapiens, UniProt P45983).
T1 construct: purchased Eurofins Pharma Discovery (KINOMEscan service)
T1 sequence (P45983 whole entry): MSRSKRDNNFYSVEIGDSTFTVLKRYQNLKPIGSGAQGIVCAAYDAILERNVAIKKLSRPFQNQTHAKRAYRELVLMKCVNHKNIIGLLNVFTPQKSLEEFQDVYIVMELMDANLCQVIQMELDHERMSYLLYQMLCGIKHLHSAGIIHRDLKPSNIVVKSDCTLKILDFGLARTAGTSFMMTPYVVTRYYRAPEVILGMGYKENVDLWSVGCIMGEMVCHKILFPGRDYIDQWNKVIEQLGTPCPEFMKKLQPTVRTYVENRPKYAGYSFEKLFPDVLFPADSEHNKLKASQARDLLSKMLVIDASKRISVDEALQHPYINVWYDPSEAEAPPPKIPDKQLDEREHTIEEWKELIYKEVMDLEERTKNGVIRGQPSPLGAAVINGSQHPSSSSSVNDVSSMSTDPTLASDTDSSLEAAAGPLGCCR
Description: KINOMEscan JNK1 binding (Kd). The following applies: 12-point series, max 33 μM, duplicate. The procedure:
(§1) All compounds were evaluated for their ability to bind to JNK1-3 using the KINOMEscan platform.
(§2) Compounds were submitted for dissociation constant (Kd) determination using KINOMEscan (Eurofins Pharma Discovery, San Diego, CA, USA), as described previously. […] Primary screening at fixed concentrations of compounds was performed in duplicate. To determine dissociation constant Kd, a 12-point half-log dilution series (a maximum concentration of 33 μM) was used.

In data set [2] the target is T2, JNK2 (Homo sapiens, UniProt P45984).
T2 construct: purchased Eurofins Pharma Discovery (KINOMEscan service)
T2 sequence (P45984 whole entry): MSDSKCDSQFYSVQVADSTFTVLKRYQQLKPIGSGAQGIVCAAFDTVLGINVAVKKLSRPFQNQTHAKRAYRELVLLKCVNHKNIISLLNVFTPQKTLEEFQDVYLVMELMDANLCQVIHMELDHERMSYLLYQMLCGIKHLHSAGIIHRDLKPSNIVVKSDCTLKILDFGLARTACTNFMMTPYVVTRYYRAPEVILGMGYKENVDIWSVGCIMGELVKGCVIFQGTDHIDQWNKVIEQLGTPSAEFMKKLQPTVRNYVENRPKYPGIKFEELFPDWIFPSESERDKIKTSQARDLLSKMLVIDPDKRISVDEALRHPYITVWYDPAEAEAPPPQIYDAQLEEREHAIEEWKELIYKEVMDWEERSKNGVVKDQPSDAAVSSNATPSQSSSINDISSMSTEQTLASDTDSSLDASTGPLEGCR
Description: KINOMEscan JNK2 binding (Kd). Conditions: 12-point series, max 33 μM, duplicate. The procedure:
as §1, §2

The target in data set [3] is T3, JNK3 (Homo sapiens, UniProt P53779).
T3 construct: purchased Eurofins Pharma Discovery (KINOMEscan service)
T3 sequence (P53779 whole entry): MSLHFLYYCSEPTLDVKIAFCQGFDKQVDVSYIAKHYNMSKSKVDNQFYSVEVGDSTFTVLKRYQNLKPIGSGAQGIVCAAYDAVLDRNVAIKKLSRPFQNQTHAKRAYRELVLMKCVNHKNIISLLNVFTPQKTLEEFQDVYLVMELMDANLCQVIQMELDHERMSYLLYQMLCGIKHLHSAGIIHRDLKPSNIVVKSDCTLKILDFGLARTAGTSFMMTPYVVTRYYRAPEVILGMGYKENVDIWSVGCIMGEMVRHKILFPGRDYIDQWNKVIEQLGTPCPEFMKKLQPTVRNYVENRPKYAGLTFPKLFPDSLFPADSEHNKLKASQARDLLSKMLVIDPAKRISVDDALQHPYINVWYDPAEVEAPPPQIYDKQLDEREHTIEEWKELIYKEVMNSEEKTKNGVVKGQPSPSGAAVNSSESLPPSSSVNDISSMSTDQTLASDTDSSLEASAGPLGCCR
As to the kind of experiment: KINOMEscan JNK3 binding (Kd). The following applies: for Kd: KINOMEscan, 12-point series, max 33 μM, duplicate; for Selectivity Index JNK1/JNK3 / Selectivity Index JNK2/JNK3: ratio of Kd values. Here is the method:
as §1, §2

Data set [4] concerns NF-κB/AP-1 transcriptional activity in THP-1Blue cells. As to the kind of experiment: LPS-induced NF-κB/AP-1 alkaline phosphatase reporter assay in THP-1Blue cells. Type of data set: cell-based. Conditions: Homo sapiens, 30 min pretreatment, 250 ng/mL LPS, 24 h; read-out: AP Production in THP–1Blue IC50. Here is the method: Activation of AP-1/NF-κB was measured using an alkaline phosphatase reporter gene assay in THP1-Blue cells. Human monocytic THP-1Blue cells were stably transfected with a secreted embryonic alkaline phosphatase gene that was under the control of a promoter inducible by AP-1/NF-κB.
Figure 2 Effect of compounds 4d and 4e on NF-κB/AP-1 activity and IL-6 production. Panel (A) THP-1Blue cells were pretreated with the indicated compounds or DMSO for 30 min, followed by addition of 250 ng/mL LPS or buffer for 24 h. […] Panel (B) MonoMac-6 cells were pretreated with the indicated compounds or DMSO for 30 min, followed by addition of 250 ng/mL LPS or buffer for 24 h. Production of IL-6 in the supernatants was evaluated with ELISA. The data in each panel are presented as the mean ± S.D. of triplicate samples from one experiment that is representative of three independent experiments.
(In general: A reporter such as luciferase makes a cellular process visible.)

Data set [5] can be described thus: CellTiter-Glo cytotoxicity in THP-1Blue cells. It is filed as cell-based. The following applies: human, 24 h incubation. The procedure: (§3) Prior to evaluation of the compounds in cell-based assays, we measured their cytotoxicity in human monocytic THP-1Blue and MonoMac-6 cells during a 24 h incubation. […] Thus, these compounds were all excluded from subsequent testing in these cell lines.
(§4) Cytotoxicity was analyzed with a CellTiter-Glo Luminescent Cell Viability Assay Kit from Promega (Madison, WI, USA), according to the manufacturer’s protocol. Cells were treated with the compound under investigation and cultivated for 24 h. After treatment, the cells were allowed to equilibrate to room temperature for 30 min, substrate was added, and the luminescence measured using a Fluoroscan Ascent FL (Thermo Fisher Scientific, Waltham, MA, USA). The cell IC50 values were calculated by plotting the percentage inhibition against the logarithm of inhibitor concentration (at least five points).

Data set [6] concerns IL-6 production in MonoMac-6 cells. As to the kind of experiment: LPS-induced IL-6 production in MonoMac-6 cells (ELISA). Type of data set: cell-based, human. Conditions: 250 ng/mL LPS, 24 h. Here is the method:
All cells were cultured at 37 °C in a humidified atmosphere containing 5% CO2. Human THP-1Blue monocytic cells obtained from InvivoGen (San Diego, CA, USA) were cultured in RPMI 1640 medium (Mediatech Inc., Herndon, VA, USA) supplemented with 10% (v/v) fetal bovine serum (FBS), 4.5 g/L glucose, 100 μg/mL streptomycin, 100 U/mL penicillin, 100 μg/mL phleomycin (Zeocin), and 10 μg/mL blasticidin S. Human monocyte-macrophage MonoMac-6 cells (Deutsche Sammlung von Mikroorganismen und Zellkulturen GmbH, Braunschweig, Germany) were grown in RPMI 1640 medium supplemented with 10% (v/v) FBS, 10 μg/mL bovine insulin, 100 μg/mL streptomycin, and 100 U/mL penicillin.
Panel (A) THP-1Blue cells were pretreated with the indicated compounds or DMSO for 30 min, followed by addition of 250 ng/mL LPS or buffer for 24 h. […] Panel (B) MonoMac-6 cells were pretreated with the indicated compounds or DMSO for 30 min, followed by addition of 250 ng/mL LPS or buffer for 24 h. Production of IL-6 in the supernatants was evaluated with ELISA. The data in each panel are presented as the mean ± S.D. of triplicate samples from one experiment that is representative of three independent experiments.

Data set [7] can be described thus: CellTiter-Glo cytotoxicity in MonoMac-6 cells. Type of data set: cell-based. Conditions: human, 24 h incubation. The procedure: as §3, §4
For data set [8], the system named is c-Jun phosphorylation in MonoMac-6 cells. Description: LPS-induced c-Jun (Ser63) phosphorylation in MonoMac-6 cells (sandwich ELISA). It is filed as cell-based, human. Conditions: 30 min pretreatment, LPS 500 ng/mL. Here is the method:
After 30 min pretreatment with the compounds, the cells were stimulated with LPS (500 ng/mL), and the level of phospho-c-Jun (S63) was determined by a sandwich ELISA.
MonoMac-6 cell lysates were prepared using Cell Lysis Buffer (Cell Signaling Technology, Danvers, MA, USA). The phospho-c-Jun content was measured with ELISA using the PathScan Phospho-c-Jun (Ser63) Sandwich ELISA Kit II (Cell Signaling Technology, USA), and the data are shown as the ratio of phospho-c-Jun vs. total c-Jun, which was measured using the FastScanTM Total c-Jun ELISA kit (Cell Signaling Technology).
Figure 3 Effect of the compounds 4d, 4e, 4h, and IQ-1S on LPS-induced c-Jun phosphorylation. Human MonoMac-6 monocytic cells were pretreated with the indicated concentrations of compounds or 0.5% DMSO for 30 min, followed by treatment with LPS (500 ng/mL) or control buffer for another 30 min. The cells were lysed, and the lysates were analyzed with ELISA for phospho-c-Jun (Ser63) and total c-Jun. The data are represented as the ratio of phospho-c-Jun to total c-Jun. The data are presented as the mean ± S.D. of triplicate samples from one experiment that is representative of three independent experiments. * Significant differences (p < 0.05) with LPS control.
In general terms: In an ELISA, binding on a coated surface is turned into a signal by an enzyme label.

Data set [9] has as its target T1, JNK1. Conditions: Figure 1; ref [49],[50],[51]; cited from earlier work.
Data set [10] has as its target T2, JNK2. Conditions: Figure 1; ref [49],[50],[51]; cited from earlier work.
Data set [11] deals with T3, JNK3. The following applies: cited from earlier work; for Kd: Figure 1, ref [49],[50],[51].

As for `COc1ccc2c(c1)C(=NO)c1nc3ccccc3c(=O)n1-2` [Compound 4d, 8-Methoxyindolo[2,1-b]quinazolin-6,12-dione Oxime], the melting point is > 225 °C (dec.). Also, the Kd in data set [1] is greater than 30 µM. The Kd in data set [2] is greater than 30 µM. For the same molecule, in [3], the “selectivity index (JNK3 versus JNK1 and JNK2)” value was greater than 7; the Kd is 0.34 ± 0.03 µM; the “Selectivity Index JNK1/JNK3” value is on record as greater than 100; the “Selectivity Index JNK2/JNK3” value is given as greater than 100. In [4], the half-inhibitory concentration (IC50) was 0.8 ± 0.3 µM. Besides, the half-inhibitory concentration (IC50) at 24 h in data set [5] is greater than 50 µM. Moreover, the half-inhibitory concentration (IC50) in data set [6] (30 min pretreatment) was determined as 0.7 ± 0.1 µM. In addition, the half-inhibitory concentration (IC50) in data set [6] (Homo sapiens, MONO-MAC-6, 30 min pretreatment) is less than 1 µM. The molecule further gave an IC50 at 24 h in data set [7] greater than 50 µM. In addition, the “LPS-induced c-Jun phosphorylation (phospho-c-Jun S63 / total c-Jun)” value in data set [8] is reported as “dose-dependently inhibited”.

`O=c1c2ccccc2nc2n1-c1ccc(-c3ccccc3)cc1C2=NO` [Compound 4e, 8-Phenylindolo[2,1-b]quinazolin-6,12-dione Oxime]: the melting point was > 225 °C (dec.). In addition, in data set [1], the dissociation constant (Kd) is greater than 30 µM. For the same molecule, the Kd in data set [2] was greater than 30 µM. Further, in data set [3], the “selectivity index (JNK3 versus JNK1 and JNK2)” value is greater than 7; the Kd came to 0.34 ± 0.04 µM; the “Selectivity Index JNK1/JNK3” value is greater than 100; the “Selectivity Index JNK2/JNK3” value is greater than 100. For the same molecule, in data set [4], the 50% inhibitory concentration (IC50) came out at 1.6 ± 0.1 µM. The concentration for half-maximal inhibition (IC50) at 24 h in data set [5] is greater than 50 µM. The molecule also returned a half-inhibitory concentration (IC50) at 24 h in data set [7] greater than 50 µM. For the same molecule, the “LPS-induced c-Jun phosphorylation (phospho-c-Jun S63 / total c-Jun)” value in data set [8] is listed as “dose-dependently inhibited”.

Take `Cc1ccc2c(c1)-n1c(nc3ccccc3c1=O)C2=NO` [Compound 4h, 9-Methylindolo[2,1-b]quinazolin-6,12-dione Oxime]: the melting point is > 225 °C (dec.). The equilibrium dissociation constant (Kd) in data set [1] turned out to be 0.67 ± 0.35 µM. For the same molecule, in data set [2], the Kd turned out to be 0.57 ± 0.12 µM. Moreover, in data set [3], the Kd came out at 0.23 ± 0.04 µM, the “Selectivity Index JNK1/JNK3” value was 2.9 and the “Selectivity Index JNK2/JNK3” value turned out to be 2.5. In data set [5], this molecule yielded an IC50 at 24 h greater than 50 µM. In addition, the half-maximal inhibitory concentration (IC50) at 24 h in data set [7] is greater than 50 µM. For the same molecule, the “LPS-induced c-Jun phosphorylation (phospho-c-Jun S63 / total c-Jun)” value in [8] is on record as “dose-dependently inhibited”.

As to `O/N=C1\c2ccccc2-c2nc3cc(F)c(F)cc3nc21` [IQ–4f], the Kd in [9] is 0.17 µM; in [10] it was greater than 30 µM; in data set [11], 0.52 µM.

Regarding `O/N=C1\c2ccccc2-c2nc3ccc(Cl)cc3nc21` [IQ–6i], the dissociation constant Kd was 1.1 µM in data set [9], 21.5 µM in [10] and 0.71 µM in data set [11].

Take `N#CCO/N=C1\c2ccccc2-n2c1nc1ccccc1c2=O` [TRYP–1e]: the Kd in data set [9] was 19.5 µM; in data set [10], 17.5 µM; in data set [11] it was 1.5 µM. Further, in data set [11] (ref [49]), the “selectivity for JNK3 binding versus JNK1/JNK2” value is recorded as ~ 10 fold.
